Like-named read-outs stand apart in the source and are kept apart here.
Experiments:
human D2R/β-arrestin [1] = molecular target: T1, human D2R/β-arrestin (Homo sapiens (Human), UniProt P14416); conditions: read-out: cAMP Antagonist
human D2R/β-arrestin [2] = molecular target: T1, human D2R/β-arrestin; assay: Gi/cAMP agonist assay (Lance Ultra cAMP, Forskolin); type: cell-based; conditions: CHO-K1 cell line expressing human D2R/β-arrestin
In short: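 Cells were plated and incubated before compounds were pin-transferred and incubated for 10 min at 37 °C. Forskolin was then added to stimulate cAMP. cAMP was detected by Lance Ultra TR-FRET using Eu-cAMP tracer and ULight-anti-cAMP antibody.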

human D2R/β-arrestin [3] = molecular target: T1, human D2R/β-arrestin; assay: β-Arrestin agonist assay (PathHunter); type: cell-based; conditions: CHO-K1 cell line expressing human D2R/β-arrestin
In short: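 After compound incubation, detection reagent (Buffer:Emerald II:Galactor-Star, 19:5:1) added and luminescence or fluorescence read.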

human D2R/β-arrestin [4] = molecular target: T1, human D2R/β-arrestin; conditions: read-out: β-arrestin Antagonist
human D2R/β-arrestin [5] = molecular target: T1, human D2R/β-arrestin; assay: cell-based; conditions: β-arrestin Antagonist, CHO-K1 cell line expressing human D2R/β-arrestin; quinpirole used as agonist
human D2R/β-arrestin [6] = molecular target: T1, human D2R/β-arrestin; assay: cell-based; conditions: cAMP Antagonist
[7] = Microsomal stability, mouse
[8] = CHO-K1 cell line expressing human D2R/β-arrestin, quinpirole used as agonist

T1 sequence (P14416 whole entry): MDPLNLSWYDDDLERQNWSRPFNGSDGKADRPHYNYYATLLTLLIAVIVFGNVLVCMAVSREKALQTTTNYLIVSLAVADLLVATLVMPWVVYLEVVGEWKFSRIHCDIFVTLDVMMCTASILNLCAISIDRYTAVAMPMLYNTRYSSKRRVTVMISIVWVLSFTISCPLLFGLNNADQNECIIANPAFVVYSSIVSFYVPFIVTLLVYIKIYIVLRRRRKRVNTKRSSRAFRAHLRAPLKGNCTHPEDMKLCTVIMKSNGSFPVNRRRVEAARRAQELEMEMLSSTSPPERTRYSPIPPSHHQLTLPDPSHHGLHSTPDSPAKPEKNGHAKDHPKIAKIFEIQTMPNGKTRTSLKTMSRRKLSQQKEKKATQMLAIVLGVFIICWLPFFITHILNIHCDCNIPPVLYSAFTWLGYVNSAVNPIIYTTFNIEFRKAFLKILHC

Structure (SMILES): O=C(NC(c1ccc(F)cc1)c1ccccn1)C1CCN(CCOc2ccccc2Cl)CC1 (single isomer, unassigned) [Compound 53a, 1-(2-(2-chlorophenoxy)ethyl)-N-((4-fluorophenyl)(pyridin-2-yl)methyl) piperidine-4-carboxamide]
- IC50 (human D2R/β-arrestin [1]): 0.1 to 1 µM
- EC50 (human D2R/β-arrestin [2]): > 30 µM
- EC50 (human D2R/β-arrestin [3]): > 30 µM
- IC50 (human D2R/β-arrestin [4]): 0.1 to 1 µM

Structure (SMILES): O=C(NC(c1ccc(F)cc1)c1ccccn1)C1CCN(CCOc2ccccc2F)CC1 (single isomer, unassigned) [Compound 54a, 1-(2-(2-fluorophenoxy)ethyl)-N-((4-fluorophenyl)(pyridin-2-yl)methyl) piperidine-4-carboxamide]
- IC50 (human D2R/β-arrestin [1]): < 0.1 µM
- EC50 (human D2R/β-arrestin [2]): > 30 µM
- EC50 (human D2R/β-arrestin [3]): > 30 µM
- IC50 (human D2R/β-arrestin [4]): < 0.1 µM

Structure (SMILES): O=C(NC(c1ccc(Cl)cc1)c1ccccn1)C1CCN(CCn2ccc(=O)cc2)CC1 (single isomer, unassigned) [Compound 11b]
- IC50 (human D2R/β-arrestin [1]): > 30 µM
- EC50 (human D2R/β-arrestin [2]): > 30 µM
- EC50 (human D2R/β-arrestin [3]): > 30 µM
- IC50 (human D2R/β-arrestin [4]): > 30 µM

Structure (SMILES): Fc1ccccc1OCCN1CCC(CNC(c2ccc3c(c2)OCO3)c2ccccn2)CC1 (single isomer, unassigned) [Compound 139b, 1-(benzo[d][1,3]dioxol-5-yl)-N-((1-(2-(2-fluorophenoxy)ethyl)piperidin-4-yl)methyl)-1-(pyridin-2-yl)methanamine]
- IC50 (human D2R/β-arrestin [1]; [8]): 0.1 to 1 µM
- IC50 (human D2R/β-arrestin [5]): 1 to 10 µM
- EC50 (human D2R/β-arrestin [2]): 0.1 to 1 µM
- EC50 (human D2R/β-arrestin [3]): > 30 µM

Structure (SMILES): O=C(NC(c1ccc(Cl)cc1)c1ccccn1)C1CCN(CCOc2cc(F)ccc2F)CC1 (single isomer, unassigned) [Compound 14a]
- IC50 (human D2R/β-arrestin [1]): > 30 µM
- EC50 (human D2R/β-arrestin [2]): < 0.1 µM
- EC50 (human D2R/β-arrestin [3]): 0.1 to 1 µM
- IC50 (human D2R/β-arrestin [4]): 1 to 10 µM

Structure (SMILES): COc1cccc(C(NC(=O)C2CCN(CCOc3ccccc3)CC2)c2ccccc2)c1 (stereo not drawn) [Compound 46]
- EC50 (human D2R/β-arrestin [3]): > 30 µM
- IC50 (human D2R/β-arrestin [4]; [8]): 1 to 10 µM

Structure (SMILES): O=C(NC(c1cccc(OC(F)(F)F)c1)c1ccccn1)C1CCN(CCOc2ccccc2)CC1 (single isomer, unassigned) [Compound 118a, 1-(2-phenoxyethyl)-N-(pyridin-2-yl(3-(trifluoromethoxy)phenyl)methyl) piperidine-4-carboxamide]
- IC50 (human D2R/β-arrestin [1]): > 30 µM
- EC50 (human D2R/β-arrestin [2]): 10 to 30 µM
- EC50 (human D2R/β-arrestin [3]): > 30 µM
- IC50 (human D2R/β-arrestin [4]): 10 to 30 µM

Structure (SMILES): CN(CC1CCN(CCOc2ccccc2F)CC1)C(c1ccc2c(c1)OCO2)c1ccccn1 (single isomer, unassigned) [Compound 138b, 1-(benzo[d][1,3]dioxol-5-yl)-N-((1-(2-(2-fluorophenoxy)ethyl)piperidin-4-yl)methyl)-N-methyl-1-(pyridin-2-yl)methanamine]
- EC50 (human D2R/β-arrestin [2]): < 0.1 µM
- EC50 (human D2R/β-arrestin [3]): > 30 µM
- IC50 (human D2R/β-arrestin [4]; [8]): 0.1 to 1 µM
- IC50 (human D2R/β-arrestin [6]; [8]): < 0.1 µM

Structure (SMILES): c1ccc(OCCN2CCC(CNC(c3ccc4c(c3)OCO4)c3ccccn3)CC2)cc1 (single isomer, unassigned) [Compound 102b, 1-(benzo[d][1,3]dioxol-5-yl)-N-((1-(2-phenoxyethyl)piperidin-4-yl)methyl)-1-(pyridin-2-yl)methanamine]
- IC50 (human D2R/β-arrestin [1]; [8]): 1 to 10 µM
- EC50 (human D2R/β-arrestin [2]): 1 to 10 µM
- EC50 (human D2R/β-arrestin [3]): > 30 µM
- IC50 (human D2R/β-arrestin [4]; [8]): 1 to 10 µM

Structure (SMILES): O=C(NC(c1ccc(Cl)cc1)c1ccccn1)C1CCN(CCOc2cccc(F)c2)CC1 (single isomer, unassigned) [Compound 4b]
- IC50 (human D2R/β-arrestin [1]): 0.1 to 1 µM
- EC50 (human D2R/β-arrestin [2]): > 30 µM
- EC50 (human D2R/β-arrestin [3]): > 30 µM
- IC50 (human D2R/β-arrestin [4]): 1 to 10 µM

Structure (SMILES): O=C(NC(c1ccc2c(c1)OC(F)(F)O2)c1ccccn1)C1CCN(CCOc2ccc(F)cc2F)CC1 (single isomer, unassigned) [Compound 130b, N-((2,2-difluorobenzo[d][1,3]dioxol-5-yl)(pyridin-2-yl)methyl)-1-(2-(2,4-difluorophenoxy)ethyl)piperidine-4-carboxamide]
- EC50 (human D2R/β-arrestin [2]): < 0.1 µM
- EC50 (human D2R/β-arrestin [3]): 0.1 to 1 µM
- IC50 (human D2R/β-arrestin [4]; [8]): 1 to 10 µM
- IC50 (human D2R/β-arrestin [6]; [8]): > 30 µM

Structure (SMILES): CC1(C(=O)NC(c2ccc(Cl)cc2)c2ccccn2)CCN(CCOc2ccccc2)CC1 (single isomer, unassigned) [Compound 144b, N-((4-chlorophenyl)(pyridin-2-yl)methyl)-4-methyl-1-(2-phenoxyethyl)piperidine-4-carboxamide]
- IC50 (human D2R/β-arrestin [1]; [8]): > 30 µM
- IC50 (human D2R/β-arrestin [5]): 0.1 to 1 µM
- EC50 (human D2R/β-arrestin [2]): < 0.1 µM
- EC50 (human D2R/β-arrestin [3]): 0.1 to 1 µM

Structure (SMILES): O=C(NC(c1ccc(F)cc1)c1ccccn1)C1CCN(CCOc2ccccc2F)CC1 (single isomer, unassigned) [Compound 54b, 1-(2-(2-fluorophenoxy)ethyl)-N-((4-fluorophenyl)(pyridin-2-yl)methyl) piperidine-4-carboxamide]
- IC50 (human D2R/β-arrestin [1]): > 30 µM
- EC50 (human D2R/β-arrestin [2]): 0.1 to 1 µM
- EC50 (human D2R/β-arrestin [3]): > 30 µM
- IC50 (human D2R/β-arrestin [4]): 1 to 10 µM

Structure (SMILES): COc1cccc(C(NC(=O)C2CCN(CCOc3ccccc3)CC2)c2ccccn2)c1 (stereo not drawn) [Compound 35a]
- IC50 (human D2R/β-arrestin [1]): 10 to 30 µM
- EC50 (human D2R/β-arrestin [2]): 10 to 30 µM
- EC50 (human D2R/β-arrestin [3]): > 30 µM
- IC50 (human D2R/β-arrestin [4]): 10 to 30 µM

Structure (SMILES): Fc1ccc(C(NCC2CCN(CCOc3ccccc3)CC2)c2ccccn2)cc1 (single isomer, unassigned) [Compound 78b, 1-(4-fluorophenyl)-N-((1-(2-phenoxyethyl)piperidin-4-yl)methyl)-1-(pyridin-2-yl)methanamine]
- IC50 (human D2R/β-arrestin [1]; [8]): 1 to 10 µM
- EC50 (human D2R/β-arrestin [2]): > 30 µM
- EC50 (human D2R/β-arrestin [3]): > 30 µM
- IC50 (human D2R/β-arrestin [4]; [8]): 1 to 10 µM

Structure (SMILES): CC(C)N(CC1CCN(CCOc2ccccc2)CC1)C(c1ccc(Cl)cc1)c1ccccn1 (single isomer, unassigned) [Compound 103b, N-((4-chlorophenyl)(pyridin-2-yl)methyl)-N-((1-(2-phenoxyethyl)piperidin-4-yl)methyl)propan-2-amine]
- EC50 (human D2R/β-arrestin [2]): < 0.1 µM
- EC50 (human D2R/β-arrestin [3]): 0.1 to 1 µM
- IC50 (human D2R/β-arrestin [4]): 0.1 to 1 µM
- IC50 (human D2R/β-arrestin [6]): > 30 µM

Structure (SMILES): COc1cccc(C(c2ccccn2)N(C)CC2CCN(CCOc3ccccc3F)CC2)c1 (single isomer, unassigned) [Compound 77b, N-((1-(2-(2-fluorophenoxy)ethyl)piperidin-4-yl)methyl)-1-(3-methoxyphenyl)-N-methyl-1-(pyridin-2-yl)methanamine]
- IC50 (human D2R/β-arrestin [1]; [8]): 0.1 to 1 µM
- IC50 (human D2R/β-arrestin [5]): 1 to 10 µM
- EC50 (human D2R/β-arrestin [2]): > 30 µM
- EC50 (human D2R/β-arrestin [3]): > 30 µM

Structure (SMILES): O=C(NC(c1ccc(Cl)cc1)c1ccccn1)C1CCN(CCOc2cccc(Cl)c2)CC1 (single isomer, unassigned) [Compound 1b, 1-(2-(3-chlorophenoxy)ethyl)-N-((4-chlorophenyl)(pyridin-2-yl)methyl)piperidine-4-carboxamide]
- EC50 (human D2R/β-arrestin [2]): < 0.1 µM
- EC50 (human D2R/β-arrestin [3]): 1 to 10 µM
- IC50 (human D2R/β-arrestin [4]; [8]): 1 to 10 µM
- IC50 (human D2R/β-arrestin [6]; [8]): > 30 µM

Structure (SMILES): O=C(NC(c1cccc(OC(F)(F)F)c1)c1ccccn1)C1CCN(CCOc2ccccc2F)CC1 (stereo not drawn) [Compound 93, 1-(2-(2-fluorophenoxy)ethyl)-N-(pyridin-2-yl(3-(trifluoromethoxy)phenyl)methyl)piperidine-4-carboxamide]
- IC50 (human D2R/β-arrestin [5]): 0.1 to 1 µM
- EC50 (human D2R/β-arrestin [2]): < 0.1 µM
- EC50 (human D2R/β-arrestin [3]): > 30 µM
- IC50 (human D2R/β-arrestin [6]; [8]): > 30 µM
- Microsomal Stability: % remaining after 60 minutes [7]: m12%

Structure (SMILES): COc1cccc(C(c2ccccn2)N(C)CC2CCN(CCOc3ccccc3)CC2)c1 (single isomer, unassigned) [Compound 76b, 1-(3-methoxyphenyl)-N-methyl-N-((1-(2-phenoxyethyl)piperidin-4-yl)methyl)-1-(pyridin-2-yl)methanamine]
- EC50 (human D2R/β-arrestin [2]): 1 to 10 µM
- EC50 (human D2R/β-arrestin [3]): > 30 µM
- IC50 (human D2R/β-arrestin [4]; [8]): 1 to 10 µM
- IC50 (human D2R/β-arrestin [6]; [8]): 1 to 10 µM

Structure (SMILES): CC1(CNC(c2ccc(F)cc2)c2ccccn2)CCN(CCOc2ccccc2C(F)(F)F)CC1 (single isomer, unassigned) [Compound 101b, 1-(4-fluorophenyl)-N-((4-methyl-1-(2-(2-(trifluoromethyl)phenoxy)ethyl)piperidin-4-yl)methyl)-1-(pyridin-2-yl)methanamine]
- EC50 (human D2R/β-arrestin [3]): > 30 µM
- IC50 (human D2R/β-arrestin [4]; [8]): 0.1 to 1 µM

Structure (SMILES): Clc1ccc(C(c2ccccn2)N2CCC3(CCN(CCOc4ccccc4)CC3)C2)cc1 (single isomer, unassigned) [Compound 105b, 2-((4-chlorophenyl)(pyridin-2-yl)methyl)-8-(2-phenoxyethyl)-2,8-diazaspiro[4.5]decane]
- IC50 (human D2R/β-arrestin [1]; [8]): > 30 µM
- IC50 (human D2R/β-arrestin [5]): 1 to 10 µM
- EC50 (human D2R/β-arrestin [2]): 0.1 to 1 µM
- EC50 (human D2R/β-arrestin [3]): 1 to 10 µM

Structure (SMILES): O=C(NC(c1cccc(OC(F)(F)F)c1)c1ccccn1)C1CCN(CCOc2ccccc2F)CC1 (single isomer, unassigned) [Compound 93b, 1-(2-(2-fluorophenoxy)ethyl)-N-(pyridin-2-yl(3-(trifluoromethoxy)phenyl)methyl)piperidine-4-carboxamide]
- EC50 (human D2R/β-arrestin [2]): 0.1 to 1 µM
- EC50 (human D2R/β-arrestin [3]): > 30 µM
- IC50 (human D2R/β-arrestin [4]; [8]): 1 to 10 µM
- IC50 (human D2R/β-arrestin [6]; [8]): > 30 µM
- Microsomal Stability: % remaining after 60 minutes [7]: m19%

Structure (SMILES): Fc1ccccc1C(NCC1CCN(CCOc2ccccc2)CC1)c1ccc(Cl)cc1 (single isomer, unassigned) [Compound 81b, 1-(4-chlorophenyl)-1-(2-fluorophenyl)-N-((1-(2-phenoxyethyl)piperidin-4-yl)methyl)methanamine]
- IC50 (human D2R/β-arrestin [1]; [8]): 0.1 to 1 µM
- IC50 (human D2R/β-arrestin [5]): 1 to 10 µM
- EC50 (human D2R/β-arrestin [2]): > 30 µM
- EC50 (human D2R/β-arrestin [3]): > 30 µM

Structure (SMILES): Clc1ccc(C(c2ccccn2)N2CC3(CCN(CCOc4ccccc4)CC3)C2)cc1 (stereo not drawn) [Compound 104, 2-((4-chlorophenyl)(pyridin-2-yl)methyl)-7-(2-phenoxyethyl)-2,7-diazaspiro[3.5]nonane]
- IC50 (human D2R/β-arrestin [5]): 10 to 30 µM
- EC50 (human D2R/β-arrestin [2]): 1 to 10 µM
- EC50 (human D2R/β-arrestin [3]): > 30 µM
- IC50 (human D2R/β-arrestin [6]; [8]): > 30 µM
- Microsomal Stability: % remaining after 60 minutes [7]: m45%
